Test results from US6051712A, “Piperidine derivatives having renin inhibiting activity” (Hoffmann-La Roche Inc., priority 1995, dated 2000).
Counter-ions that a name gives are not always drawn.

These compounds were tested against T1, human renin (Homo sapiens, UniProt P00797) (assay: In vitro test with pure human renin (angiotensin I production from human tetradecapeptide renin substrate, measured by RIA)). Details: not given.
T1 sequence (P00797 67-406): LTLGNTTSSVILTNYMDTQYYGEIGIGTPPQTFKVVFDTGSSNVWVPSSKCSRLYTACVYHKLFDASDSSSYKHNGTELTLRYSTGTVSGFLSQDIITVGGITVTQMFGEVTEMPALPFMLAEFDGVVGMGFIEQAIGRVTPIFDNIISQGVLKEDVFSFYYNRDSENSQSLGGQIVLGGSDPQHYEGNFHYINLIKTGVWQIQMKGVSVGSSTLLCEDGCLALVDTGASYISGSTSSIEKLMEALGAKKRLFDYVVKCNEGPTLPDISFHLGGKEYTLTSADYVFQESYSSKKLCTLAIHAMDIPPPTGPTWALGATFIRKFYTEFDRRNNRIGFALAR
Type: biochemical
Protocol: In vitro test with pure human renin
The test is carried out in Eppendorf test tubes. The incubation mixture consists of (1) 100 μl of human renin in buffer A (0.1M sodium phosphate solution, pH 7.4, containing 0.1% bovine serum albumin, 0.1% sodium azide and 1 mM ethylenediaminetetraacetic acid), sufficient for a renin activity of 2-3 ng of angiotensin l/ml/hr.; (2) 145 μl of buffer A: (3) 30 μl of 10 mM human tetradecapeptide renin substrate (hTD) in 10 mM hydrochloric acid: (4) […] of dimethyl sulphoxide with or without inhibitor and (5) 10 μl of a 0.03 molar solution of hydroxyquinoline sulphate in water.
The samples are incubated for three hours at 37° C. and, respectively, 4° C. in triplicate. 2×100 μl samples per test tube are used in order to measure the production of angiotensin I via RIA (standard radioimmunoassay; clinical assay solid phase kit). […] The production of angiotensin I is determined by the difference between the test at 37° C, and that at 4° C.
The following controls are carried out:
(a) Incubation of hTD samples without renin and without inhibitor at 37° C. and 4° C. The difference between these two values gives the base value of the angiotensin I production.
(b) Incubation of hTD samples with renin, but without inhibitor at 37° C. and 4° C. The difference between these values gives the maximum value of the angiotensin I production.
In each sample the base value of the angiotensin I production is subtracted from the angiotensin I production which is determined. The difference between the maximum value and the base value gives the value of the maximum substrate hydrolysis (=100%) by renin.
The IC50 values are determined from a linear regression curve from a logit-log plot.

With `COc1ccccc1COCCCOc1ccc([C@H]2CCNC[C@@H]2OCc2cc(OC)c3ccccc3c2OC)cc1` (relative stereo) [UU] as the compound, how does the IC50 read?
Its IC50 is 0.1 nM.

Same assay, conditions: pure human renin, pH 7.4, three hours at 37° C. (less 4° C.), human tetradecapeptide substrate, angiotensin I by RIA; read-out: IC50 values (concentration of the inhibitor at which the enzymatic activity is inhibited by 50%)

How did the IC50 turn out when `CN(C)Cc1ccc2ccc(CO[C@H]3CNCC[C@@H]3c3ccc(OCCCOCc4ccccc4)cc3)cc2c1` (racemic) [QQ, (7-{(3RS,4RS)-4-[4-(3-benzyloxy-propoxy)-phenyl]-piperidin-3-yloxymethyl}-naphthalen-2-ylmethyl)-dimethyl-amine] was run?
The IC50 was 2 nM.

For `COc1ccccc1COCCCOc1ccc([C@H]2CCNC[C@@H]2OCc2ccc3ccc(=O)[nH]c3c2)cc1` (racemic) [WW, (3RS,4RS)-4-[4-[3-(2-methoxy-benzyloxy)-propoxy]-phenyl]-3-(2-oxo-1,2-dihydro-quinolin-7-ylmethoxy)-piperidine], which IC50 is on record?
Its IC50 is 9 nM.

`c1ccc(COCCCOc2ccc([C@H]3[C@H](Cn4cncn4)CNC[C@@H]3OCc3ccc4ccccc4c3)cc2)cc1` (relative stereo) [NN, (3RS,4RS,5SR)4-[4(3-Benzyloxy-propoxy)-phenyl3-(naphthalen-2-ylmethoxy)-5[1,2,4]triazol1-ylmethyl-piperidine hydrochloride] was tested. Which IC50 did it give?
The IC50 was 1 nM.

`c1ccc(COCCCOc2ccc([C@@H]3[C@@H](OCc4ccc5ccccc5c4)CNC[C@H]3OCCN3CCOCC3)cc2)cc1` (racemic) [Y, 4-{2-[(3RS,4RS,5SR)-4-[4-(3-benzyloxy-propoxy)-phenyl]-3-(naphthalen-2-ylmethoxy)-piperidin-5-yloxy]-ethyl}-morpholine] was tested. Which IC50 did it give?
Its IC50 is 3 nM.

For `c1ccc(COCCCOc2ccc([C@H]3[C@H](CSc4ccncc4)CNC[C@@H]3OCc3ccc4ccccc4c3)cc2)cc1` (relative stereo) [EE], which IC50 is on record?
Its IC50 is 0.4 nM.

`Oc1cc(CO[C@H]2CNCC[C@@H]2c2ccc(CCSc3nc4ccccc4s3)cc2)cc2ccccc12` (racemic) [H, (3RS,4RS)-3-[4-[4-[2-(benzothiazol-2-ylsulphanyl)-ethyl]-phenyl]-piperidin-3-yloxymethyl]-naphthalen-1-ol] was tested. Which IC50 did it give?
The IC50 was 73 nM.

`COc1ccc(CO[C@H]2CNC[C@@H](O)[C@@H]2c2ccc(OCCCOCc3ccccc3)cc2)cc1` (racemic) [Z, (3RS,4SR,5SR)-4-[4-(3-benzyloxy-propoxy)-phenyl]-3-(4-methoxy-benzyloxy)-piperidin-5-ol] was tested. Which IC50 did it give?
Its IC50 is 1 nM.

`c1ccc(COCCCOc2ccc([C@H]3[C@H](COCCN4CCOCC4)CNC[C@@H]3OCc3ccc4ccccc4c3)cc2)cc1` (relative stereo) [BB] was tested. Which IC50 did it give?
The IC50 was 3 nM.

`OCCCCO[C@@H]1CNC[C@H](OCc2ccc3ccccc3c2)[C@H]1c1ccc(OCCCOCc2ccccc2)cc1` (racemic) [V, 4-[(3RS,4SR,5SR)-4-[4-(3-benzyloxy-propoxy)-phenyl]-3-(naphthalen-2-ylmethoxy)-piperidin-5-yloxy]-butan-1-ol] was tested. Which IC50 did it give?
Its IC50 is 2 nM.

How did the IC50 turn out when `COC[C@@H]1CNC[C@H](OCc2ccc3ccccc3c2)[C@H]1c1ccc(OCCCOCc2ccccc2)cc1` (relative stereo) [CC] was run?
Its IC50 is 2 nM.

Which IC50 does the source give for `O=C(Cc1ccc2ccccc2c1)[C@H]1CNC[C@@H](COCCN2CCOCC2)[C@@H]1c1ccc(OCCCOCc2ccccc2)cc1` (racemic) [KK, 1-[(3RS,4SR,5SR)-4-[4-(3-benzyloxy-propoxy)-phenyl]-5-(2-morpholin-4-yl-ethoxymethyl)-piperidin-3-yl]-2-naphthalen-2-yl-ethanone] here?
Its IC50 is 12 nM.

For `O=C(OCCOc1ccc([C@H]2CCNC[C@@H]2OCc2ccc3ccccc3c2)cc1)c1ccccc1Cl` (relative stereo) [B, (3RS,4RS)-2-[4-(3-napthalen-2-ylmethoxy-piperidin-4-yl)-phenoxy]-ethyl 2-chloro-benzoate hydrochloride], which IC50 is on record?
The IC50 was 26 nM.

For `O=C(Cc1ccc2ccccc2c1)[C@H]1CNCC[C@@H]1c1ccc(OCCCOCc2ccccc2)cc1` (relative stereo) [R, [(3RS,4SR)-4-[4-(3-benzyloxy-propoxy)-phenyl]-piperidin-3-yl]-2-naphthalen-2-yl-ethanone hydrochloride (1:1)], which IC50 is on record?
Its IC50 is 3 nM.

For `CN1CCN(CCOc2ccc3ccc(CO[C@H]4CNCC[C@@H]4c4ccc(OCCCOCc5ccccc5)cc4)cc3c2)CC1` (racemic) [Q, 1-[2-[7-[(3RS,4RS)-4-[4-(3-benzyloxy-propoxy)-phenyl]-piperidin-3-yloxymethyl]-naphthalen-2-yloxy]-ethyl]-4-methyl-piperazine hydrochloride (1:3)], which IC50 is on record?
Its IC50 is 5 nM.

Which IC50 does the source give for `COc1ccccc1COCCCOc1ccc([C@H]2[C@H](O)CNC[C@@H]2OCc2cc(OC)c3ccccc3c2OC)cc1` (racemic) [ZZ, (3RS,4SR,5SR)-3-(1,4-dimethoxy-naphthalen-2-ylmethoxy)-4-[4-[3-(2-methoxy-benzyloxy)-propoxy]-phenyl]-piperidin-5-ol] here?
Its IC50 is 0.03 nM.

For `O=C(OC(Cc1ccc2ccccc2c1)[C@H]1CNCC[C@@H]1c1ccc(F)cc1)c1ccccc1` (stereo partly drawn) [K, (SR)- or (RS)-1-[(3RS,4SR)-4-(4-fluoro-phenyl)-piperidin-3-yl]-2-naphthalen-2-yl-ethyl benzoate hydrochloride (1:1)], which IC50 is on record?
Its IC50 is 2600 nM.

For `OCC(O)COCCOc1ccc2ccc(CO[C@H]3CNCC[C@@H]3c3ccc(OCCCOCc4ccccc4)cc3)cc2c1` (mixture of isomers) [P, a mixture of (RS)- and (SR)-3-[2-[7-[(3RS,4RS)-4-[4-(3-benzyloxy-propoxy)-phenyl]-piperidin-3-yloxymethyl]-naphthalen-2-yloxy]-ethoxy]-propane-1,2-diol hydrochloride (1:1)], which IC50 is on record?
The IC50 was 6 nM.

For `OCC(O)COCc1ccc2cc(CO[C@H]3CNCC[C@@H]3c3ccc(OCCCOCc4ccccc4)cc3)ccc2c1` (mixture of isomers) [U, a mixture of (3RS,4RS)- and (3SR,4SR)-4-[4-(3-benzyloxy-propoxy)-phenyl]-3-[6-[(RS)-2,3-dihydroxy-propoxymethyl]-naphthalen-2-ylmethoxy]-piperidine], which IC50 is on record?
Its IC50 is 24 nM.

`c1ccc(COCCCOc2ccc([C@H]3CCNC[C@@H]3OCc3ccc4ccc(OCCN5CCOCC5)cc4c3)cc2)cc1` (racemic) [N, 4-[2-[7-[(3RS,4RS)-4-[4-(3-benzyloxy-propoxy)-phenyl]-piperidin-3-yloxymethyl]-naphthalen-2-yloxy]-ethyl]-morpholine hydrochloride (1:2)] was tested. Which IC50 did it give?
Its IC50 is 12 nM.

`COc1ccccc1COCCCOc1ccc([C@H]2CCNC[C@@H]2OCc2cc(OC)c3ccccc3c2OC)cn1` (relative stereo) [TT] was tested. Which IC50 did it give?
Its IC50 is 0.5 nM.

How did the IC50 turn out when `c1ccc(SCCCc2ccc([C@H]3CCNC[C@@H]3OCc3ccc4ccccc4c3)cc2)cc1` (racemic) [G, (3RS,4RS)-3-(naphthalen-2-ylmethoxy)-4-[4-(3-phenylsulphanyl-propyl)-phenyl]-piperidine] was run?
Its IC50 is 33 nM.
